In patent US11352330B2, “Phenoxymethyl derivatives” (Hoffmann-La Roche Inc., priority 2015, dated 2022):

These compounds were tested against human ATX (Homo sapiens (Human), UniProt Q13822) (assay: Human ATX enzyme inhibition assay (fluorescence quenching, MR121 substrate)). Conditions: human His-tagged ATX 30 nM, MR121 substrate 1 μM, 30° C.
Assay type: biochemical
How it was run: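 Human His-tagged ATX (30 nM final) preincubated 15 min at 30 °C with serially diluted compounds in Tris buffer pH 8.0 with Ca2+, Mg2+ and 0.01% Triton X-100. MR121/tryptophan-labelled substrate analogue (1 μM final) then added for 15 min at 30 °C; cleavage read by fluorescence dequenching.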
In the case of `Cc1cc(OCc2n[nH]c3ncccc23)c(C(C)(C)C)cc1C#N` [Example D4], the IC50 is reported as 9 nM.
Work on `COc1ncccc1-c1cc(C#N)c(Cl)cc1OCc1n[nH]c(=O)n1C` [Example B54] yielded an IC50 of 29 nM.
`Cc1cc(OCc2cc(C(=O)N3CCCC3)[nH]n2)c(C(C)(C)C)cc1Cl` [Example F4, (3-((2-(tert-Butyl)-4-chloro-5-methylphenoxy)methyl)-1H-pyrazol-5-yl)(pyrrolidin-1-yl)methanone] was tested, and the IC50 was 8 nM.
Compound `Cc1cc(OCc2n[nH]c(=O)n2C)c(-c2cc(OCC3CCOC3)ccc2F)cc1Cl` (stereo not shown) [Example B67] has an IC50 of 6 nM.
Work on `Cc1cc(OCc2n[nH]c3ncccc23)c(-c2cccc(C(=O)NCCO)c2)cc1Cl` [Example D19] yielded an IC50 of 35 nM.
Work on `COc1ncccc1-c1cc(Cl)c(C)cc1OCc1n[nH]c2c1CCN(C(C)=O)C2` [Example E8, 1-(3-((4-Chloro-2-(2-methoxypyridin-3-yl)-5-methylphenoxy)methyl)-4,5-dihydro-1H-pyrazolo[3,4-c]pyridin-6(7H)-yl)ethanone] yielded an IC50 of 69 nM.
With `Cc1cc(OCc2n[nH]c(=O)n2C)c(-c2cc(C(=O)NC3CC3)ccc2F)cc1Cl` [Example B15] the IC50 was 11 nM.
For `CC(C)(C)c1cc(Cl)c(C#N)cc1OCc1n[nH]c2ncccc12` [Example D52], the IC50 was 2 nM.
Compound `CN(C)C(=O)c1cccc(-c2cc(C#N)c(Cl)cc2OCc2n[nH]c(=O)n2C)c1` [Example B39] has an IC50 of 93 nM.
Compound `CC(C)(C)c1cc(S(C)(=O)=O)ccc1OCc1n[nH]c2ncccc12` [Example D45] has an IC50 of 23 nM.
Work on `Cc1cc(OCc2n[nH]c3nc(OCC(O)CO)ccc23)c(C(C)(C)C)cc1Cl` (stereo not shown) [Example D15, 3-[[3-[(2-tert-Butyl-4-chloro-5-methylphenoxy)methyl]-1H-pyrazolo[3,4-b]pyridin-6-yl]oxy]propane-1,2-diol] yielded an IC50 of 6 nM.
With `Cc1cc(OCc2n[nH]c(=O)n2C)c(-c2cnc[nH]2)cc1Cl` [Example B28, 3-[[4-Chloro-2-(1H-imidazol-5-yl)-5-methylphenoxy]methyl]-4-methyl-1H-1,2,4-triazol-5-one] the IC50 was 5940 nM.
With `Cc1cc(OCc2n[nH]c(=O)n2C)c(-c2cc(Cl)cc(C(N)=O)c2)cc1Cl` [Example B14] the IC50 was 79 nM.
Compound `Cc1cc(OCc2ccc(=O)[nH]n2)c(C2CCCCC2)cc1Cl` [Example C6, 3-[(4-chloro-2-cyclohexyl-5-methylphenoxy)methyl]-1H-pyridazin-6-one] has an IC50 of 7 nM.
`Cc1nc(-c2cccc(-c3cc(C#N)c(Cl)cc3OCc3n[nH]c(=O)n3C)c2)no1` [Example B35] showed an IC50 of 81 nM.
`Cc1cc(OCc2n[nH]c(=O)n2C)c(-c2cc(C(=O)N(C)Cc3cccs3)ccc2F)cc1Cl` [Example B68] was tested, and the IC50 was 7 nM.
`COC(=O)c1ccc(C)c(-c2cc(Cl)c(C)cc2OCc2n[nH]c(=O)n2C)c1` [Example B49, Methyl 3-[5-chloro-4-methyl-2-[(4-methyl-5-oxo-1H-1,2,4-triazol-3-yl)methoxy]phenyl]-4-methylbenzoate] showed an IC50 of 8 nM.
For `Cc1cc(OCc2n[nH]c(=O)n2C)c(C(C)C)cc1C#N` [Example A12], the IC50 was 1 nM.
Compound `Cc1cc(OCc2n[nH]c(=O)n2C)c(-c2cc(C(=O)N(C)CC3CC3)ccc2F)cc1Cl` [Example B70] has an IC50 of 4 nM.
Compound `N#Cc1cc(-c2cc(OC3CC3)ccc2F)c(OCc2n[nH]c3cnccc23)cc1Cl` [Example D51] has an IC50 of 69 nM.
`Cn1c(COc2cc(Cl)c(C#N)cc2-c2cc(OC3CC3)ccc2F)n[nH]c1=O` [Example B95] showed an IC50 of 6 nM.
`Cc1cc(OCc2n[nH]c(=O)n2C)c(-c2cc(C(=O)N3CCCC3)ccc2F)cc1Cl` [Example B62] gave an IC50 of 9 nM.
Compound `COCC(=O)N(C)Cc1ccc(F)c(-c2cc(Cl)c(C)cc2OCc2n[nH]c(=O)n2C)c1` [Example B78] has an IC50 of 7 nM.
Compound `Cc1cc(OCc2n[nH]c(=O)n2C)c(-c2cccc(Cl)c2)cc1Cl` [Example B3] has an IC50 of 1 nM.
`Cc1noc(-c2ccc(OCc3n[nH]c(=O)n3C)c(C(C)(C)C)c2)n1` [Example A4] gave an IC50 of 59 nM.
